In US8415469B2, “Compounds and methods for kinase modulation, and indications therefor” (Plexxikon Inc., priority 2005, dated 2013):

Experiments:
Type in all cases: biochemical
FGFR1 = target: T1, FGFR1 (Homo sapiens, UniProt P11362, C488A/C584S); test: AlphaScreen kinase assay, FGFR1; details: read-out: IC50, activity toward kinase FGFR
T1 construct: P1351.pET N6 BI-PTP FGFR A458-E765-X C488A, C584S; made in house; host or cells: E. coli (PTP1B co-expressed)

Kit = target: T2, Kit (Homo sapiens, UniProt P10721); test: AlphaScreen kinase assay, Kit; details: read-out: IC50, activity toward kinase Kit
T2 construct: P1332.N6 BI PTP KIT M552-K948-X COD; His6 (N); made in house; host or cells: E. coli (PTP1B co-expressed)

Yes = target: T3, Yes (Homo sapiens, UniProt P07947); test: Z'-Lyte FRET kinase assay (Invitrogen), Yes; details: read-out: IC50, activity toward kinase Yes
T3 construct: purchased Invitrogen (Carlsbad, Calif.), screening service
How it was run: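 Serially diluted compound (1% DMSO final) is mixed with kinase plus 2 μM peptide substrate in pH 7.5 HEPES buffer, then ATP is added to 10 μM. After 1 h at room temperature, site-specific protease is added for another hour, reactions are stopped and fluorescence ratio measured.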

Ret = target: T4, Ret (Homo sapiens, UniProt P07949); test: AlphaScreen kinase assay, Ret; details: read-out: IC50, activity toward kinase Ret
T4 construct: P1378.pET-SF BI-PTP RET H661-R1012 HIS; made in house
T4 sequence (P07949 with tags, fused parts or gaps): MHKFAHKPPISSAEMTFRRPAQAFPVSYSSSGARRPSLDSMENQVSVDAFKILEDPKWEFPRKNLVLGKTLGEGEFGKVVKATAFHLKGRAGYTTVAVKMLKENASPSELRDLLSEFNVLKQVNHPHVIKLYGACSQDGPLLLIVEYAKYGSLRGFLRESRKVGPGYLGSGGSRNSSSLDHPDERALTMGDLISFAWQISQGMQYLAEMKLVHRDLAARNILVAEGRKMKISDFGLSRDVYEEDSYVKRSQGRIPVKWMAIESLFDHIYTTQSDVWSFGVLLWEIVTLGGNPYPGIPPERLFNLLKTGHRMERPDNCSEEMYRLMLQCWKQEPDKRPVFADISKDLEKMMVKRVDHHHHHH

B-Raf V600E = target: T5, B-Raf V600E (Homo sapiens, UniProt P15056, V600E); test: AlphaScreen kinase assay, B-Raf V600E; details: read-out: IC50, activity toward kinase B-Raf V600E
T5 construct: P4254. pFastBacBD-CDC37 BRAF D437-K722-X, V600E; His6 with pFastBac HT leader (TEV site) (N); made in house; host or cells: Sf9 (baculovirus; chaperone CDC37 co-expressed)

Kdr = target: T6, Kdr (Homo sapiens, UniProt P35968); test: Z'-Lyte FRET kinase assay (Invitrogen), Kdr; details: read-out: IC50, activity toward kinase Kdr
T6 construct: purchased Invitrogen (assay run by Invitrogen)

Measured: IC50

T1 sequence (P11362 458-765 C488A/C584S): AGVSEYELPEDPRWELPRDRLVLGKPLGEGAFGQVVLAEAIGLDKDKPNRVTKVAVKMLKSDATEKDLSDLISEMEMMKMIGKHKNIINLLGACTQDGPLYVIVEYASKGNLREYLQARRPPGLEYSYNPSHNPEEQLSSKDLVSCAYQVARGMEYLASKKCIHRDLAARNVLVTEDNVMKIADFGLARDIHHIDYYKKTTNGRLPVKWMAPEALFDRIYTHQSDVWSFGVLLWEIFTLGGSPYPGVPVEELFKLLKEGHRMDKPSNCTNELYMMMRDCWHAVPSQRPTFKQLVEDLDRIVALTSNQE
T5 sequence (P15056 with tags, fused parts or gaps V600E): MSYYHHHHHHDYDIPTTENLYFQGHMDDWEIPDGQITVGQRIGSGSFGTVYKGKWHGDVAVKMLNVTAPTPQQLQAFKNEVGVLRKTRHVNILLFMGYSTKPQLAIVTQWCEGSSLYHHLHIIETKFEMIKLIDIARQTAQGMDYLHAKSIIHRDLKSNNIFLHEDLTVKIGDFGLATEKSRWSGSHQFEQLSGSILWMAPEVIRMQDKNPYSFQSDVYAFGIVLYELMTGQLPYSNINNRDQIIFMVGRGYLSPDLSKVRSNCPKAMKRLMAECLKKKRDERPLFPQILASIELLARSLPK
T2 sequence (P10721 with tags, fused parts or gaps): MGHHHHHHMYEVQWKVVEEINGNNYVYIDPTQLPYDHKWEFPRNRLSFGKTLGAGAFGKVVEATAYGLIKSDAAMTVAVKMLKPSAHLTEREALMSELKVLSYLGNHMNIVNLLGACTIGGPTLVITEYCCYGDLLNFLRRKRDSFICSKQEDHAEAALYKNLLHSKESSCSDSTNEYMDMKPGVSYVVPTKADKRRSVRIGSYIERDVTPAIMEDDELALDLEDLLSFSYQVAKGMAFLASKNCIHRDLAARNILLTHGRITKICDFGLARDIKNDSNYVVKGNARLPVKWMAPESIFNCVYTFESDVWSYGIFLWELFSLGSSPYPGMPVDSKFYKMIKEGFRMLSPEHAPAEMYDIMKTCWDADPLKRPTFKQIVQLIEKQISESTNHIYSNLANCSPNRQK
T3 sequence (P07947 whole entry): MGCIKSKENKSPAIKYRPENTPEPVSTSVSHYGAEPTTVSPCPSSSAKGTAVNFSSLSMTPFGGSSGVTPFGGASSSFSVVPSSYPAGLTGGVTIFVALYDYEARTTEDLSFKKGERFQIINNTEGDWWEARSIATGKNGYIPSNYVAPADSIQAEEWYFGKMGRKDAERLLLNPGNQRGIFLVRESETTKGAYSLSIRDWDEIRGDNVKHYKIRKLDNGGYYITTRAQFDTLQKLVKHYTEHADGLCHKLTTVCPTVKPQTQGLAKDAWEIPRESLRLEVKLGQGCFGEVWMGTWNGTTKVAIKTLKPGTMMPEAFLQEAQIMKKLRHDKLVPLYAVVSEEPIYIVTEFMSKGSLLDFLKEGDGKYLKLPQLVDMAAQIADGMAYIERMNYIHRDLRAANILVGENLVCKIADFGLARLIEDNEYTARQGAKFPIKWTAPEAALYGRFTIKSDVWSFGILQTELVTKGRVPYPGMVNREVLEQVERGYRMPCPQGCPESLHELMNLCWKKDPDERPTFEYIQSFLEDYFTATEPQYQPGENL
T6 sequence (P35968 20-1356): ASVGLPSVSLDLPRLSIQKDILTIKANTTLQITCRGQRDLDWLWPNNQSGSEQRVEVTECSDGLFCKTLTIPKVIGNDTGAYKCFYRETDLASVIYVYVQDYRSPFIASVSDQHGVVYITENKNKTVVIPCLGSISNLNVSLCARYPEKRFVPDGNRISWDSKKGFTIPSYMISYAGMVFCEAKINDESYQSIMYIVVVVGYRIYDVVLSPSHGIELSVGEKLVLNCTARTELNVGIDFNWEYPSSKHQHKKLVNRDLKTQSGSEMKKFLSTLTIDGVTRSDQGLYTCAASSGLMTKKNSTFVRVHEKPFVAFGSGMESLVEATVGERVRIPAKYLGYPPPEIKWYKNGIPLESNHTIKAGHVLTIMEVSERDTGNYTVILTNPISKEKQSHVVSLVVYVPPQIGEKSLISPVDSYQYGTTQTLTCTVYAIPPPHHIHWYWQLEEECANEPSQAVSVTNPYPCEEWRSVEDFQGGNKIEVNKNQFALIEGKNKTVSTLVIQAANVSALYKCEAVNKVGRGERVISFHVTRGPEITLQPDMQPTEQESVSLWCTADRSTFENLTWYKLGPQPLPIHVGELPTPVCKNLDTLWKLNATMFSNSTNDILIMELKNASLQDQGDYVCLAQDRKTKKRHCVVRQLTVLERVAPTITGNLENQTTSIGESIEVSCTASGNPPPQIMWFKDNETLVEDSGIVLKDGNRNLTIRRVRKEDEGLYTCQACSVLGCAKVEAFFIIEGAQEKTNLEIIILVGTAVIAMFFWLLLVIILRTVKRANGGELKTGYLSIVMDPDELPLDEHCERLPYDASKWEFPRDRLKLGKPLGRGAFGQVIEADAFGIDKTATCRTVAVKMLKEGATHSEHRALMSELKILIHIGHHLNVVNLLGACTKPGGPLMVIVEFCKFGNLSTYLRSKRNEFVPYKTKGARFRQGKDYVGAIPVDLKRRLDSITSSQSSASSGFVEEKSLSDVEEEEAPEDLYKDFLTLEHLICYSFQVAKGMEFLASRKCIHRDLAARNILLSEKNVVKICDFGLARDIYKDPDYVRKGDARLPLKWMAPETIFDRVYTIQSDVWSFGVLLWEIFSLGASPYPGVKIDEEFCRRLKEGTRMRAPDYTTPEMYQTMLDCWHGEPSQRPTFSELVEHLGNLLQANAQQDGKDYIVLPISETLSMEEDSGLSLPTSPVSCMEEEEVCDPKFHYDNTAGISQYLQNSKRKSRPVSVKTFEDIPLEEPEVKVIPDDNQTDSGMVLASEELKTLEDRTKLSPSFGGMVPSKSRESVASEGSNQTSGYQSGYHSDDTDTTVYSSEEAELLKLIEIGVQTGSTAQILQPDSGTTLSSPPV

O=C(c1cccc(O)c1)c1c[nH]c2ncccc12 [Compound P-0011]
≤ 10 µM: all assays above

NC(=O)c1ccc(-c2ccnc3[nH]cc(C(=O)c4cc(F)ccc4F)c23)cc1 [Compound P-0013]
≤ 10 µM: all assays above

NC(=O)c1ccc(-c2ccnc3[nH]cc(C(=O)c4ccccc4F)c23)cc1 [Compound P-0014]
≤ 10 µM: Yes | Ret | B-Raf V600E | Kdr

COc1ccc(C(=O)c2c[nH]c3ncc(-c4cccc(/C=C/C(=O)O)c4)cc23)c(Cl)c1 [Compound P-0015]
not listed: Kit
≤ 10 µM: all other assays above

Cc1ccccc1C(=O)c1c[nH]c2nccc(-c3ccc(C(N)=O)cc3)c12 [Compound P-0017]
≤ 10 µM: all assays above

Nc1cccc(-c2ccnc3[nH]cc(C(=O)c4ccccc4F)c23)c1 [Compound P-0022]
≤ 10 µM: Yes | Ret | B-Raf V600E | Kdr

Cc1ccc(F)cc1C(=O)c1c[nH]c2ncc(-c3cccc(NS(C)(=O)=O)c3)cc12 [Compound P-0028]
≤ 10 µM: all assays above

Nc1ccnc2[nH]cc(C(=O)c3ccccc3)c12 [Compound P-0029]
not listed: B-Raf V600E
≤ 10 µM: all other assays above

Cc1ccccc1C(=O)c1c[nH]c2nccc(-c3cccc(N)c3)c12 [Compound P-0044]
≤ 10 µM: Yes | Ret | B-Raf V600E | Kdr

Nc1cccc(-c2ccnc3[nH]cc(C(=O)c4cc(F)ccc4F)c23)c1 [Compound P-0046]
≤ 10 µM: Yes | Ret | B-Raf V600E | Kdr

NC(=O)c1cccc(-c2ccnc3[nH]cc(C(=O)c4cc(F)ccc4F)c23)c1 [Compound P-0049]
≤ 10 µM: Yes | Ret | B-Raf V600E | Kdr

O=C(c1ccccc1F)c1c[nH]c2nccc(-c3ccsc3)c12 [Compound P-0051]
≤ 10 µM: Yes | Ret | B-Raf V600E | Kdr

O=C(c1cc(F)ccc1F)c1c[nH]c2nccc(-c3cccnc3)c12 [Compound P-0063]
≤ 10 µM: Yes | Ret | B-Raf V600E | Kdr

CC(=O)Nc1cccc(-c2ccnc3[nH]cc(C(=O)c4ccccc4F)c23)c1 [Compound P-0070]
≤ 10 µM: Yes | Ret | B-Raf V600E | Kdr
